Measured values taken from ChEMBL document CHEMBL5338754, “Identification of Binding Sites in the Nucleotide-Binding Domain of P-Glycoprotein for a Potent and Nontoxic Modulator, the Amine-Containing Monomeric Flavonoid FM04” (J Med Chem, 2023).

Experiments:
[1] = target: T1, ATP-dependent translocase ABCB1 (Homo sapiens, UniProt P08183, L1113A); assay: Negative allosteric modulator activity at human P-gp L1113A mutant expressed in HEK293FT cells assessed as reversal of P-gp mediated PTX resistance by measuring sensitivity fold change incubated for 5 days by MTS assay; type: cell-based; conditions: 120 h, time 5 day
[2] = target: ATP-dependent translocase ABCB1 (Homo sapiens, UniProt P08183, Q1193F); assay: Negative allosteric modulator activity at human P-gp Q1193F mutant expressed in HEK293FT cells assessed as reversal of P-gp mediated PTX resistance by measuring sensitivity fold change incubated for 5 days by MTS assay; type: cell-based; conditions: 120 h, time 5 day
[3] = target: T2, ATP-dependent translocase ABCB1 (Homo sapiens, UniProt P08183, Q1193C); assay: Negative allosteric modulator activity at human P-gp Q1193C mutant expressed in HEK293FT cells assessed as reversal of P-gp mediated PTX resistance by measuring sensitivity fold change incubated for 5 days by MTS assay; type: cell-based; conditions: 120 h, time 5 day
[4] = target: ATP-dependent translocase ABCB1 (Homo sapiens, UniProt P08183, Q1193T); assay: Negative allosteric modulator activity at human P-gp Q1193T mutant expressed in HEK293FT cells assessed as reversal of P-gp mediated PTX resistance by measuring sensitivity fold change incubated for 5 days by MTS assay; type: cell-based; conditions: 120 h, time 5 day
[5] = target: T3, ATP-dependent translocase ABCB1 (Homo sapiens, UniProt P08183, T1226W); assay: Negative allosteric modulator activity at human P-gp T1226W mutant expressed in HEK293FT cells assessed as reversal of P-gp mediated PTX resistance by measuring sensitivity fold change incubated for 5 days by MTS assay; type: cell-based; conditions: 120 h, time 5 day
[6] = target: ATP-dependent translocase ABCB1 (Homo sapiens, UniProt P08183, T1226Y); assay: Negative allosteric modulator activity at human P-gp T1226Y mutant expressed in HEK293FT cells assessed as reversal of P-gp mediated PTX resistance by measuring sensitivity fold change incubated for 5 days by MTS assay; type: cell-based; conditions: 120 h, time 5 day
[7] = target: T4, ATP-dependent translocase ABCB1 (Homo sapiens, UniProt P08183, T1226F); assay: Negative allosteric modulator activity at human P-gp T1226F mutant expressed in HEK293FT cells assessed as reversal of P-gp mediated PTX resistance by measuring sensitivity fold change incubated for 5 days by MTS assay; type: cell-based; conditions: 120 h, time 5 day
[8] = target: T1, ATP-dependent translocase ABCB1; assay: Negative allosteric modulator activity at human P-gp L1113A mutant expressed in HEK293FT cells assessed as increase in intracellular doxorubicin accumulation using doxorubicin as substrate at 1 uM incubated for 150 mins by microplate reader assay (reference value: 45.6 +/- 1.5 %); type: cell-based; conditions: 2.5 h
[9] = target: ATP-dependent translocase ABCB1 (Homo sapiens, UniProt P08183, I1115E); assay: Negative allosteric modulator activity at human P-gp I1115E mutant expressed in HEK293FT cells assessed as increase in intracellular doxorubicin accumulation using doxorubicin as substrate at 1 uM incubated for 150 mins by microplate reader assay (reference value: 94.7 +/- 5.1 %); type: cell-based; conditions: 2.5 h
[10] = target: ATP-dependent translocase ABCB1 (Homo sapiens, UniProt P08183, I1115N); assay: Negative allosteric modulator activity at human P-gp I1115N mutant expressed in HEK293FT cells assessed as increase in intracellular doxorubicin accumulation using doxorubicin as substrate at 1 uM incubated for 150 mins by microplate reader assay (reference value: 98.6 +/- 4.3 %); type: cell-based; conditions: 2.5 h
[11] = target: ATP-dependent translocase ABCB1 (Homo sapiens, UniProt P08183, I1115L); assay: Negative allosteric modulator activity at human P-gp I1115L mutant expressed in HEK293FT cells assessed as increase in intracellular doxorubicin accumulation using doxorubicin as substrate at 1 uM incubated for 150 mins by microplate reader assay (reference value: 58.9 +/- 2.2 %); type: cell-based; conditions: 2.5 h
[12] = target: T3, ATP-dependent translocase ABCB1; assay: Negative allosteric modulator activity at human P-gp T1226W mutant expressed in HEK293FT cells assessed as increase in intracellular doxorubicin accumulation using doxorubicin as substrate at 1 uM incubated for 150 mins by microplate reader assay (reference value: 66.7 +/- 1.5 %); type: cell-based; conditions: 2.5 h
[13] = target: T4, ATP-dependent translocase ABCB1; assay: Negative allosteric modulator activity at human P-gp T1226F mutant expressed in HEK293FT cells assessed as increase in intracellular doxorubicin accumulation using doxorubicin as substrate at 1 uM incubated for 150 mins by microplate reader assay (reference value: 67.6 +/- 1.9 %); type: cell-based; conditions: 2.5 h
[14] = target: ATP-dependent translocase ABCB1 (Homo sapiens, UniProt P08183, Q1193A); assay: Negative allosteric modulator activity at human P-gp Q1193A mutant expressed in HEK293FT cells assessed as fold change in intracellular doxorubicin accumulation using doxorubicin as substrate at 1 uM incubated for 150 mins by microplate reader assay relative to DMSO; type: cell-based; conditions: 2.5 h
[15] = target: ATP-dependent translocase ABCB1 (Homo sapiens, UniProt P08183, Q1193K); assay: Negative allosteric modulator activity at human P-gp Q1193K mutant expressed in HEK293FT cells assessed as fold change in intracellular doxorubicin accumulation using doxorubicin as substrate at 1 uM incubated for 150 mins by microplate reader assay relative to DMSO; type: cell-based; conditions: 2.5 h
[16] = target: ATP-dependent translocase ABCB1 (Homo sapiens, UniProt P08183, G1114I); assay: Negative allosteric modulator activity at human P-gp G1114I mutant expressed in HEK293FT cells assessed as fold change in intracellular doxorubicin accumulation using doxorubicin as substrate at 1 uM incubated for 150 mins by microplate reader assay relative to DMSO; type: cell-based; conditions: 2.5 h
[17] = target: ATP-dependent translocase ABCB1 (Homo sapiens, UniProt P08183, I1115Y); assay: Negative allosteric modulator activity at human P-gp I1115Y mutant expressed in HEK293FT cells assessed as fold change in intracellular doxorubicin accumulation using doxorubicin as substrate at 1 uM incubated for 150 mins by microplate reader assay relative to DMSO; type: cell-based; conditions: 2.5 h
[18] = target: ATP-dependent translocase ABCB1 (Homo sapiens, UniProt P08183, I1115K); assay: Negative allosteric modulator activity at human P-gp I1115K mutant expressed in HEK293FT cells assessed as fold change in intracellular doxorubicin accumulation using doxorubicin as substrate at 1 uM incubated for 150 mins by microplate reader assay relative to DMSO; type: cell-based; conditions: 2.5 h
[19] = target: T4, ATP-dependent translocase ABCB1; assay: Negative allosteric modulator activity at human P-gp T1226F mutant expressed in HEK293FT cells assessed as fold change in intracellular doxorubicin accumulation using doxorubicin as substrate at 1 uM incubated for 150 mins by microplate reader assay relative to DMSO; type: cell-based; conditions: 2.5 h
[20] = target: T2, ATP-dependent translocase ABCB1; assay: Activation of P-gp ATPase activity in human P-gp Q1193C mutant expressed in HEK293FT cell microsomes at 20 uM incubated for 1 hr in presence of ATP by Glo-luminescence based microplate reader assay (reference value: 0.45 +/- 0.04 pmol/min/microg); design: species or system Microsome
[21] = target: P-gp (ABCB1) Q1193A mutant (Homo sapiens, UniProt P08183, Q1193A); assay: Activation of P-gp ATPase activity in human P-gp Q1193A mutant expressed in HEK293FT cell microsomes assessed as fold change of ATPase activity at 20 uM incubated for 1 hr in presence of ATP by Glo-luminescence based microplate reader assay relative to DMSO; design: species or system Microsome; conditions: read-out: FC

T4 sequence (P08183 whole entry T1226F): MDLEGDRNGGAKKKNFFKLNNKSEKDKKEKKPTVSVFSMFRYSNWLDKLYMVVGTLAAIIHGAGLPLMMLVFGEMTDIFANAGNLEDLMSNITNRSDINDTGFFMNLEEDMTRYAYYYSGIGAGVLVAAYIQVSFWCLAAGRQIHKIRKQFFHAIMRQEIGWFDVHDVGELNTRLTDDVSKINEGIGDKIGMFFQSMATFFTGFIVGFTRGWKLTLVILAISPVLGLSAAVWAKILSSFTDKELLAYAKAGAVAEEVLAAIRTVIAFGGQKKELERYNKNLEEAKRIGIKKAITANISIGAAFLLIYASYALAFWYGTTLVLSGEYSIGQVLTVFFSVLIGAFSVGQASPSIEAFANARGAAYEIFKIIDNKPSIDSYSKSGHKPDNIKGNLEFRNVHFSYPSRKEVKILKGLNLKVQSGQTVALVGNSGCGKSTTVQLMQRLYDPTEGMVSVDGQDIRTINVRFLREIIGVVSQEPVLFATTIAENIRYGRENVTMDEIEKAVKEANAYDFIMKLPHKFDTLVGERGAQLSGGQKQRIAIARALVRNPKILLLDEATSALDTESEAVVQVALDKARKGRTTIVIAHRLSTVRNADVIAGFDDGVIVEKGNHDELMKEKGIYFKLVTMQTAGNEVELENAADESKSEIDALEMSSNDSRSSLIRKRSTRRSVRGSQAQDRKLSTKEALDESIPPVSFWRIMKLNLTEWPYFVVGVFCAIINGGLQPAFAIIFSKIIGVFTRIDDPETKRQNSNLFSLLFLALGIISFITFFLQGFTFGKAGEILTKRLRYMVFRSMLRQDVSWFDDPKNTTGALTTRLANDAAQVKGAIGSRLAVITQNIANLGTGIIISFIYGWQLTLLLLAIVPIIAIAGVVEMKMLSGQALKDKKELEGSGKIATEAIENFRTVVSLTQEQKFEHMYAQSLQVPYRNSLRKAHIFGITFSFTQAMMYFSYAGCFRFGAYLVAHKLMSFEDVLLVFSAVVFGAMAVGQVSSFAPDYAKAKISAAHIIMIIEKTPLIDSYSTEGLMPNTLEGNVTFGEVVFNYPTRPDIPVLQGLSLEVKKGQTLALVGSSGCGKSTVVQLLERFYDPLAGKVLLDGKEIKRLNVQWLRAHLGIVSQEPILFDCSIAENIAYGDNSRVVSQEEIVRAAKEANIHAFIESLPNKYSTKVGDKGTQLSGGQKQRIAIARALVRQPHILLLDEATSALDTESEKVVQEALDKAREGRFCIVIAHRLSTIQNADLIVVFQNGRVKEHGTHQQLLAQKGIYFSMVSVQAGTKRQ
T2 sequence (P08183 whole entry Q1193C): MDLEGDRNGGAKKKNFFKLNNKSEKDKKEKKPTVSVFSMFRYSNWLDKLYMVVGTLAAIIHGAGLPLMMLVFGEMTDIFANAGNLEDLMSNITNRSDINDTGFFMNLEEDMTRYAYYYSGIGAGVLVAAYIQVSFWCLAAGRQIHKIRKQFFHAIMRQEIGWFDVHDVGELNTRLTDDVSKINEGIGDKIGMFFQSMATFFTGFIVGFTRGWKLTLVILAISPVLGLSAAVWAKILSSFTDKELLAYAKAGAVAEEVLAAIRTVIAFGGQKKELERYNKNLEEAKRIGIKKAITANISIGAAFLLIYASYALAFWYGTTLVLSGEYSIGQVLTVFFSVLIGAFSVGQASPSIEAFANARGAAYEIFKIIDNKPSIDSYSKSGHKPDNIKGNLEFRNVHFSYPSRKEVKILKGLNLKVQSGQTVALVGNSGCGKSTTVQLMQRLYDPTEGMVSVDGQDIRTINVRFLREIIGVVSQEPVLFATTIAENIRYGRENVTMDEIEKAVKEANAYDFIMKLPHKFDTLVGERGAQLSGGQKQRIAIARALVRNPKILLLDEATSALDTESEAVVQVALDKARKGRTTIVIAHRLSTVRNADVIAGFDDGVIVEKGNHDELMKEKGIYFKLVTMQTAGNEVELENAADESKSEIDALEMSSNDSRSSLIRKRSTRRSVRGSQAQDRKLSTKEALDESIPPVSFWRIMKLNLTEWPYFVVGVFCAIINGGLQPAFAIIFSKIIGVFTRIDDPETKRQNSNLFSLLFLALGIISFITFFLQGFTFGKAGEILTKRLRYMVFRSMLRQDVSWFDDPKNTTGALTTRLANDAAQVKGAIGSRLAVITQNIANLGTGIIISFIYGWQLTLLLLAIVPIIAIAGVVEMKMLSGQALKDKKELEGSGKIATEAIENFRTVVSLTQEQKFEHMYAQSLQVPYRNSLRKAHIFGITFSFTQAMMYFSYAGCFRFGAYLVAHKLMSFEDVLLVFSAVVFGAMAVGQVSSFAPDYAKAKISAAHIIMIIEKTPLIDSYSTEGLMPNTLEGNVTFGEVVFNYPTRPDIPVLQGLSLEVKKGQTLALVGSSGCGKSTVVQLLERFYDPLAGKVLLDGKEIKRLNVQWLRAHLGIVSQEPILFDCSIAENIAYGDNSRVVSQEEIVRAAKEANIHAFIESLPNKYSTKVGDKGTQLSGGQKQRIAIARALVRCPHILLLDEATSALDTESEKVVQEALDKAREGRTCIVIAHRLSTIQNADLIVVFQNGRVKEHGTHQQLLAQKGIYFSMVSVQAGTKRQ
T1 sequence (P08183 whole entry L1113A): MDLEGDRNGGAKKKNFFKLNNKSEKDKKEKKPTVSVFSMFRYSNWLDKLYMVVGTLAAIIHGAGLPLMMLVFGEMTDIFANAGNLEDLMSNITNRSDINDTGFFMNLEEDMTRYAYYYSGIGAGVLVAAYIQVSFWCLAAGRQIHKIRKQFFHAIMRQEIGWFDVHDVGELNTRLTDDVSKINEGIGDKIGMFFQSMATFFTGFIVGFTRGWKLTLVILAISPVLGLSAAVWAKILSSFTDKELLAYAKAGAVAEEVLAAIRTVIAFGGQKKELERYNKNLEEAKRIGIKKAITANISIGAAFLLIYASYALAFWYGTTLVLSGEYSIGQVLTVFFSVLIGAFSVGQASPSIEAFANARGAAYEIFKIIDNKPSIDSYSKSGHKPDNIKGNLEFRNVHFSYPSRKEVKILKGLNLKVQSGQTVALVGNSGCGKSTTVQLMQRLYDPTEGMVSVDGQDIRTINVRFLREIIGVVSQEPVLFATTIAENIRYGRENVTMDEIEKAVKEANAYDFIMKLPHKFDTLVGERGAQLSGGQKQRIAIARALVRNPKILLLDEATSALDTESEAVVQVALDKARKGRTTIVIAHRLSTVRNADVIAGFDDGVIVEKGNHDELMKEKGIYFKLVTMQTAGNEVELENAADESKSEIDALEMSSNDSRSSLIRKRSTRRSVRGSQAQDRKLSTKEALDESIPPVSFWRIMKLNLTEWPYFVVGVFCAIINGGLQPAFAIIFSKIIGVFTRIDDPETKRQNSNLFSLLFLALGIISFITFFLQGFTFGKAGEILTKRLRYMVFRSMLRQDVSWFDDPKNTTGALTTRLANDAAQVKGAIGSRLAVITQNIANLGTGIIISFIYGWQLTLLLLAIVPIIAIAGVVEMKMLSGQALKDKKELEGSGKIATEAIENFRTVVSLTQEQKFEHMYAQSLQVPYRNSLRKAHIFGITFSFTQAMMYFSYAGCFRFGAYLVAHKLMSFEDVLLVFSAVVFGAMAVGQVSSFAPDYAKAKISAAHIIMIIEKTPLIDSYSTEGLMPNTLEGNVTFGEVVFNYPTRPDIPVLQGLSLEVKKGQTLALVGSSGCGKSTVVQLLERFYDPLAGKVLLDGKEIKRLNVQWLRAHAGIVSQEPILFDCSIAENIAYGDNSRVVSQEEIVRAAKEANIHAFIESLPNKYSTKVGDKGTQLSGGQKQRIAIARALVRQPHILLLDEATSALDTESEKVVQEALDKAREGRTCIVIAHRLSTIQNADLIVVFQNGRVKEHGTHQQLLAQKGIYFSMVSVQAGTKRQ
T3 sequence (P08183 whole entry T1226W): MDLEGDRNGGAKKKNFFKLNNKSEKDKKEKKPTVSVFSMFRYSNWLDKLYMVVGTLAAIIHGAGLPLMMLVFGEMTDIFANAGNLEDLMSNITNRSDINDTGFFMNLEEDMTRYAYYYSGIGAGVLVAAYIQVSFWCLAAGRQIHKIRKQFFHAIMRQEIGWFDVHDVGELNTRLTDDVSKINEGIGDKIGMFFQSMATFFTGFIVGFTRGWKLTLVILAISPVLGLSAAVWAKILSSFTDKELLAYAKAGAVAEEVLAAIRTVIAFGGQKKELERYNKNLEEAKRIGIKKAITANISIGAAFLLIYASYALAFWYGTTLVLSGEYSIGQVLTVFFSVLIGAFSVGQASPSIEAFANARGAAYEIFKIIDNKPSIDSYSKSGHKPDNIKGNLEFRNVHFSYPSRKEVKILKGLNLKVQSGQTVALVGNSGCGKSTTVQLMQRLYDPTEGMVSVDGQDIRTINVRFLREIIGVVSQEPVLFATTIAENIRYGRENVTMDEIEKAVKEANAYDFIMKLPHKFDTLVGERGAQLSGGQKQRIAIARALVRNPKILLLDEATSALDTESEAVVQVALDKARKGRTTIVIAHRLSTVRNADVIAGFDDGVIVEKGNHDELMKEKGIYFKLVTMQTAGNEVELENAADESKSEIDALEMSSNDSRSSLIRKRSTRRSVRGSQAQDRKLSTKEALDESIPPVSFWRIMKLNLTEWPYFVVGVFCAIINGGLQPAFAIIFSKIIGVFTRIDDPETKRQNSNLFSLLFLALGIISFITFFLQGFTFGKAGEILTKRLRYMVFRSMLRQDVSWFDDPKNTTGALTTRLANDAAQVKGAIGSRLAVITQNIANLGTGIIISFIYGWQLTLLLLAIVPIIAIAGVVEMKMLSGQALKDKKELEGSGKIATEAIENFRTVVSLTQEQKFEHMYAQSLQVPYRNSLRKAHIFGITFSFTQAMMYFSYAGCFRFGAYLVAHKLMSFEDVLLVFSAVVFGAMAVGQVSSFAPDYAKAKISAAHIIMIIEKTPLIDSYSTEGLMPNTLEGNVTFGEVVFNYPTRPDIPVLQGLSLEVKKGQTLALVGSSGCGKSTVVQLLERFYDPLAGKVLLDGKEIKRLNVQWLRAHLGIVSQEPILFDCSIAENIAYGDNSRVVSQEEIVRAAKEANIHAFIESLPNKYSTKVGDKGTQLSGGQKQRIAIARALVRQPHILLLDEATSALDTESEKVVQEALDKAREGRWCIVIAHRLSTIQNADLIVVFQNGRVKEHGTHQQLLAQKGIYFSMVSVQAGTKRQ

fold change (FC) [1]: 140.5 | fold change (FC) [2]: 5.6 | fold change (FC) [3]: 12.4 | fold change (FC) [4]: 8.5 | fold change (FC) [5]: 56.8 | fold change (FC) [6]: 62.4 | fold change (FC) [7]: 59.4 | Activity [8]: 82.2% | Activity [9]: 97.8% | Activity [10]: 94.1% | Activity [11]: 97.2% | Activity [12]: 102.4% | Activity [13]: 100.3% | fold change (FC) [14]: 1.1 | fold change (FC) [15]: 1.3 | fold change (FC) [16]: 1 | fold change (FC) [17]: 1 | fold change (FC) [18]: 1 | fold change (FC) [19]: 1.5 | Activity [20]: 0.57 pmol/min/µg | fold induction at 1 h, 20 µM [21]: 1.1
Structure (SMILES): O=c1cc(-c2ccc(OCCOCCNCc3ccccc3)cc2)oc2ccccc12
